From ChEMBL document CHEMBL3885861, “Open TG-GATES”

Organism: Rattus norvegicus
Experiment: Open TG-GATES - Regimen: Single
Assay type: toxicity, organism-based, Sprague-Dawley
Parameters: regimen Single, gender Male, age 6 weeks
Conditions: in vivo, po, 0 mg/kg, route gavage, dose level Control; for APTT / Bas / Eos / Fbg / Hb / Ht / Lym / MCH / MCHC / MCV / Mono / PT / Plat / RBC / Ret / WBC: tissue Blood; for KIDNEY_L / KIDNEY_R / KIDNEY_TOTAL: tissue Kidney; for LIVER: tissue Liver

C#C[C@]1(O)CC[C@H]2[C@@H]3CCc4cc(O)ccc4[C@H]3CC[C@@]21C [ETHINYL ESTRADIOL]
TERMINAL_BW (3 h): 196.6 g | APTT (3 h): 16.9 s | Bas (3 h): 0% | Eos (3 h): 0.8% | Fbg (3 h): 256 mg/dL | Hb (3 h): 13.2 g/dL | Ht (3 h): 39.9% | Lym (3 h): 79.4% | MCH (3 h): 21.8 pg | MCHC (3 h): 33.1% | MCV (3 h): 66 fL | Mono (3 h): 3.8% | PT (3 h): 12.2 s | Plat (3 h): 117 x10_4/uL | RBC (3 h): 604.8 x10_4/ul | Ret (3 h): 9.9% | WBC (3 h): 82.1 x10_2/uL | KIDNEY_L (3 h): 0.8 g | KIDNEY_R (3 h): 0.8 g | KIDNEY_TOTAL (3 h): 1.7 g | LIVER (3 h): 8.6 g | ALP (3 h, tissue Plasma): 1558.8 IU/L | ALT (3 h, tissue Plasma): 44 IU/L | AST (3 h, tissue Plasma): 77.6 IU/L | BUN (3 h, tissue Plasma): 10.6 mg/dL | CRE (3 h, tissue Plasma): 0.2 mg/dL | Ca (3 h, tissue Plasma): 11.3 mg/dL | Cl (3 h, tissue Plasma): 107 meq/L | DBIL (3 h, tissue Plasma): 0.02 mg/dL | IP (3 h, tissue Plasma): 8.6 mg/dL | K (3 h, tissue Plasma): 4 meq/L | LDH (3 h, tissue Plasma): 56 IU/L | Na (3 h, tissue Plasma): 142.4 meq/L | PL (3 h, tissue Plasma): 157.6 mg/dL | RALB (3 h, tissue Plasma): 2.6 g/dL | TBIL (3 h, tissue Plasma): 0.044 mg/dL | TC (3 h, tissue Plasma): 86.2 mg/dL | TP (3 h, tissue Plasma): 5.5 g/dL | gamma-GTP (3 h, tissue Plasma): 1.2 IU/L | TERMINAL_BW (6 h): 194 g | APTT (6 h): 16.2 s | Bas (6 h): 0% | Eos (6 h): 1% | Fbg (6 h): 265.8 mg/dL | Hb (6 h): 13.2 g/dL | Ht (6 h): 39.3% | Lym (6 h): 75% | MCHC (6 h): 33.6% | MCV (6 h): 63.4 fL | PT (6 h): 12.3 s | Plat (6 h): 123.8 x10_4/uL | RBC (6 h): 620.2 x10_4/ul | Ret (6 h): 9.8% | WBC (6 h): 90.8 x10_2/uL | KIDNEY_L (6 h): 0.8 g | KIDNEY_R (6 h): 0.8 g | KIDNEY_TOTAL (6 h): 1.7 g | LIVER (6 h): 7.6 g | ALP (6 h, tissue Plasma): 1686.2 IU/L | ALT (6 h, tissue Plasma): 42 IU/L | AST (6 h, tissue Plasma): 79.2 IU/L | BUN (6 h, tissue Plasma): 7.6 mg/dL | CRE (6 h, tissue Plasma): 0.2 mg/dL | Ca (6 h, tissue Plasma): 10.8 mg/dL | Cl (6 h, tissue Plasma): 109.4 meq/L | DBIL (6 h, tissue Plasma): 0.012 mg/dL | IP (6 h, tissue Plasma): 10.2 mg/dL | K (6 h, tissue Plasma): 4 meq/L | LDH (6 h, tissue Plasma): 53.6 IU/L | Na (6 h, tissue Plasma): 144.6 meq/L | PL (6 h, tissue Plasma): 122.6 mg/dL | RALB (6 h, tissue Plasma): 2.6 g/dL | TBIL (6 h, tissue Plasma): 0.046 mg/dL | TC (6 h, tissue Plasma): 75.6 mg/dL | TP (6 h, tissue Plasma): 5.4 g/dL | gamma-GTP (6 h, tissue Plasma): 1 IU/L | TERMINAL_BW (9 h): 195.8 g | Bas (9 h): 0% | Eos (9 h): 1% | Fbg (9 h): 265.2 mg/dL | Hb (9 h): 12.8 g/dL | Ht (9 h): 38% | Lym (9 h): 72.2% | MCH (9 h): 21.8 pg | MCHC (9 h): 33.6% | MCV (9 h): 64.8 fL | PT (9 h): 12.4 s | Plat (9 h): 119.3 x10_4/uL | RBC (9 h): 588 x10_4/ul | Ret (9 h): 9.5% | WBC (9 h): 73.4 x10_2/uL | KIDNEY_L (9 h): 0.9 g | KIDNEY_R (9 h): 0.9 g | KIDNEY_TOTAL (9 h): 1.7 g | LIVER (9 h): 7 g | ALP (9 h, tissue Plasma): 1662.8 IU/L | ALT (9 h, tissue Plasma): 42 IU/L | AST (9 h, tissue Plasma): 75 IU/L | BUN (9 h, tissue Plasma): 9.2 mg/dL | CRE (9 h, tissue Plasma): 0.2 mg/dL | Ca (9 h, tissue Plasma): 10.5 mg/dL | Cl (9 h, tissue Plasma): 107.8 meq/L | DBIL (9 h, tissue Plasma): 0.01 mg/dL | IP (9 h, tissue Plasma): 10.7 mg/dL | K (9 h, tissue Plasma): 3.8 meq/L | LDH (9 h, tissue Plasma): 42 IU/L | Na (9 h, tissue Plasma): 144 meq/L | PL (9 h, tissue Plasma): 125.4 mg/dL | RALB (9 h, tissue Plasma): 2.5 g/dL | TBIL (9 h, tissue Plasma): 0.04 mg/dL | TC (9 h, tissue Plasma): 77 mg/dL | TP (9 h, tissue Plasma): 5.2 g/dL | gamma-GTP (9 h, tissue Plasma): 1.2 IU/L | TERMINAL_BW (24 h): 203.2 g | APTT (24 h): 16.4 s | Bas (24 h): 0% | Eos (24 h): 1% | Fbg (24 h): 245.4 mg/dL | Hb (24 h): 12.9 g/dL | Ht (24 h): 38.3% | Lym (24 h): 76.2% | MCH (24 h): 21.6 pg | MCHC (24 h): 33.6% | MCV (24 h): 64.4 fL | Mono (24 h): 3.6% | PT (24 h): 12.5 s | Plat (24 h): 112.7 x10_4/uL | RBC (24 h): 594.4 x10_4/ul | Ret (24 h): 8.5% | WBC (24 h): 103.2 x10_2/uL | KIDNEY_L (24 h): 0.9 g | KIDNEY_R (24 h): 0.9 g | KIDNEY_TOTAL (24 h): 1.7 g | LIVER (24 h): 8.9 g | ALP (24 h, tissue Plasma): 1908.8 IU/L | ALT (24 h, tissue Plasma): 52.2 IU/L | AST (24 h, tissue Plasma): 78.6 IU/L | BUN (24 h, tissue Plasma): 13.8 mg/dL | CRE (24 h, tissue Plasma): 0.2 mg/dL | Cl (24 h, tissue Plasma): 104.8 meq/L | DBIL (24 h, tissue Plasma): 0.01 mg/dL | GLC (24 h, tissue Plasma): 194.2 mg/dL | IP (24 h, tissue Plasma): 7.7 mg/dL | LDH (24 h, tissue Plasma): 62.4 IU/L | Na (24 h, tissue Plasma): 141 meq/L | PL (24 h, tissue Plasma): 136.2 mg/dL | RALB (24 h, tissue Plasma): 2.5 g/dL | TBIL (24 h, tissue Plasma): 0.034 mg/dL
